Reference: US11267861B2, “Peptide-oligourea foldamer compounds and methods of their use” (UREKA SARL, priority 2016, dated 2022)
Numbered stars: 1 amine (or outer) side, 2 acyl side, 3 side chain; on linkers, the order of the positions; unused ones are H or OH. Peptide text beside a SMILES is read from it. * marks the point of attachment. X3 = O=C(O)[C@@H]1CCCN1C(=O)NC[C@H](CO)N*; X5 = C[C@@H](O)[C@H](N)CN*; CO = O=C([*:1])[*:2]

Legend:
chymotrypsin = experiment: Enzymatic degradation by chymotrypsin; format: in vitro ADME; details: compared to native peptide GLP-1 (SEQ ID NO: 1)
Procedure: Enzymatic Degradation—Chymotrypsin and Trypsin. Stock solutions of the compounds were prepared at a concentration of 400 μM in a solution of 50 mM HEPES buffer, 50 mM NaCl, 0.05% Tween-80, pH 8.0. Stock solution of the chymotrypsin or trypsin was prepared at a concentration of 250 μg/mL in water. Stability of compounds to chymotrypsin was assessed by conducting a protease reaction in a 96-well plates at room temperature. Each well received 10 μL of HEPES buffer, 38 μL of the solution of compound to be assayed (final concentration 304 μmol/L), and 2 μL of the enzyme solution (final concentration 10 μg/mL) for a total volume of 50 μL. Each compound was also incubated in the absence of the enzyme (12 μL of HEPES buffer and 38 μL of the compound).
(§1) At the indicated time (5, 10, 15, 30 and 60 minute(s)) a 10 μL aliquot was removed from each experimental reaction and pipet into 100 μL of 1% TFA solution to quench the reaction (t=0 minutes was determined using the reaction without enzyme). A portion of the quenched reaction solution was analyzed by HPLC. The time course of peptide degradation was determined by integrating the area of each peak in a series of HPLC traces. Another portion of the quenched reaction was analyzed by LC-MS for identification of each peptide fragment.

mouse GLP-1 receptor = molecular target: T1, mouse GLP-1 receptor (Mus musculus, UniProt O35659); experiment: GLP-1 functional assay: agonist activity by cAMP production (HTRF) in βTC6 cells; format: cell-based
T1 construct: mouse GLP-1 receptor endogenously expressed in βTC6 cells; endogenous in cells; host or cells: βTC6 cells
T1 sequence (O35659 22-463): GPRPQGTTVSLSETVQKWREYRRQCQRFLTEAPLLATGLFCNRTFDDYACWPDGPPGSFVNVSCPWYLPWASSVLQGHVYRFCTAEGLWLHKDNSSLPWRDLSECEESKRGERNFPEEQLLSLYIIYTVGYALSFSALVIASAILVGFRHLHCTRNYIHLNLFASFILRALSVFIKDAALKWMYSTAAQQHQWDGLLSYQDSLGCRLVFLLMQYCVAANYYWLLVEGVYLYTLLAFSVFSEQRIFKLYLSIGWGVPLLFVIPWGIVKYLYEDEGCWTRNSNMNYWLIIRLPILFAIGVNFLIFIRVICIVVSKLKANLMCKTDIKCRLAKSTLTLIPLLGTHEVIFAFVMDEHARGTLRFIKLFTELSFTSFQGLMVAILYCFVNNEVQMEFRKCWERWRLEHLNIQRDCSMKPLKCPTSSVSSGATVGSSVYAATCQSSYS
Procedure: For stimulated control measurement, separate assay wells contain 10 nM GLP-1(7-37) were utilized.
Following incubation, the cells were lysed and the fluorescence acceptor (D2-labeled cAMP) and fluorescence donor (anti-cAMP antibody labeled with europium cryptate) were added. […] The results are expressed as a percent of the control response to 10 nM GLP-1(7-37). The standard reference agonist is GLP-1(7-37), which was tested in each experiment at several concentrations to generate a concentration-response curve from which its EC50 value was calculated.
(§2) HTRF (Homogeneous Time-Resolved Fluorescence) principle. The HTRF technology is based on time resolved fluorescence energy transfer (TR-FRET), which occurs between long-lived fluorophore Europium or Terbium Cryptates, and EuK or Tb respectively, as a donor and the allophycocyanin XL665, d2 or Red as acceptor. Many compounds and proteins present in biological fluids or serum are naturally fluorescent, and the use of conventional, prompt fluorescence leads to serious limitations in assay sensitivity. The use of long-lived fluorophore combined with time-resolved detection (a delay between excitation and emission detection) minimizes prompt fluorescence interference.

[1] = molecular target: T2, Carboxypeptidase A (EC 3.4.17.1) (Bos taurus, UniProt P00730); experiment: Enzymatic degradation by carboxypeptidase A; format: in vitro ADME, bovine; details: same results = more stable than the native peptides
T2 construct: from bovine pancreas (Fluka), milky suspension; purchased Fluka; host or cells: bovine pancreas
T2 sequence (P00730 111-419): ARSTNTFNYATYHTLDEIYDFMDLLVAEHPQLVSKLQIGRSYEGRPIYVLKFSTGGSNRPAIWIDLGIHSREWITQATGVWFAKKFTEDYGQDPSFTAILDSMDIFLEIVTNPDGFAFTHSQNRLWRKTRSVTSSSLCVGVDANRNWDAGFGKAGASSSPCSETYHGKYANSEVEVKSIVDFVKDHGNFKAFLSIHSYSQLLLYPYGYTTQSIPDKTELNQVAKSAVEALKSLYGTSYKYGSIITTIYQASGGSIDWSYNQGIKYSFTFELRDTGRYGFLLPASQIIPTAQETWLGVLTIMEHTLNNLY
Procedure: Enzymatic Degradation—Carboxypeptidase A. Carboxypeptidase A (EC 3.4.17.1) from bovine pancreas (Fluka), milky suspension, stock solution in PBS buffer (pH 7.5, 0.01 M). For each degradation experiment, stock solutions of the peptidic substrate and the enzyme were made using phosphate-buffered saline (PBS) buffer solution. The enzyme concentrations of the stock solutions were selected such that the standard substrates were totally degraded after a maximum of 15 min (ratio 2[enzyme]:100[substrate]). PBS buffer solution (10 mM sodium phosphate, 0.14 M NaCl) was prepared as follows: Solution A (4.75 mL of 0.2 M NaH2PO4.H2O), solution B (20.25 mL of 0.2 M Na2HPO4.H2O), NaCl (4.5 g) and H2O (25 mL) were stirred for 15 min at room temperature and diluted tenfold with H2O. The pH was adjusted either with NaOH (1 M) or with HCl (1 M) prior to use. A solution of the substrate in PBS buffer (pH 7.5, 0.01 M) and a solution of the required amount of enzyme, were mixed and incubated at 25° C. for 4 hours. Degradation was stopped with concentrated AcOH, and buffer solution was added so that the total volume reached 150 μL.
The resulting mixture was analyzed by reversed-phase HPLC. A mixture of CH3CN/H2O (0.1% TFA) was used as eluent. Gradients were 10% CH3CN to 100% CH3CN in 10 minutes. The flow rate, for all separations, was 1 mL·min^−1.

trypsin = experiment: Enzymatic degradation by trypsin; format: in vitro ADME; details: compared to native peptide GLP-1 (seq. 1)
Procedure: Enzymatic Degradation—Chymotrypsin and Trypsin. Stock solutions of the compounds were prepared at a concentration of 400 μM in a solution of 50 mM HEPES buffer, 50 mM NaCl, 0.05% Tween-80, pH 8.0. […] Stability of compounds to chymotrypsin was assessed by conducting a protease reaction in a 96-well plates at room temperature. […] Each compound was also incubated in the absence of the enzyme (12 μL of HEPES buffer and 38 μL of the compound).
as §1

MDMX = molecular target: T3, MDMX (Homo sapiens, UniProt O15151); experiment: MDMX/p53 interaction HTRF assay; format: biochemical
T3 construct: GI:88702790)
T3 sequence (O15151 1-174): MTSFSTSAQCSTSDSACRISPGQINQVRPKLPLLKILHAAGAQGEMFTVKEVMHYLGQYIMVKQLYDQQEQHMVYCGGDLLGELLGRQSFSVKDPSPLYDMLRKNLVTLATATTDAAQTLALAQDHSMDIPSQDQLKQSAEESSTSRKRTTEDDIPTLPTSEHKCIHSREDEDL
Procedure: (§3) Functional Assay to Examine Bioactivity of MDM2 and MDMX Antagonists. The compounds were received dissolved in 100% DMSO at a final concentration of 10 mM and frozen. After complete defrosting and sonication, all compounds were diluted in 100% DMSO at both 0.4 mM, 0.04 and 0.004 mM, and distributed into two 96-well compounds daughter plates (Table 2).
(§4) Each compound was evaluated in duplicate on both (MDM2 or MDMX)/p53 interaction and on a positive TR-FRET control protein in a 384-well reaction plate. […] The reference compound Nutlin-3 is integrated in the compound daughter plate and was used under the same conditions.
as §2, with “interference. […]” for “interference.”

MDM2 = molecular target: T4, MDM2 (Homo sapiens, UniProt Q00987); experiment: MDM2/p53 interaction HTRF assay; format: biochemical
T4 construct: GST-Flag-Mdm2 (AA1-188; GI:4505136)
T4 sequence (Q00987 1-188): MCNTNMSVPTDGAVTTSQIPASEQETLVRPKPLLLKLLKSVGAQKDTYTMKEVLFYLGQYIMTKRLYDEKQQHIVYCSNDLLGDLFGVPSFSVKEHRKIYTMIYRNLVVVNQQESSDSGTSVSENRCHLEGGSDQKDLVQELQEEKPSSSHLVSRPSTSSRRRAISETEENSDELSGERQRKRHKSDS
Procedure: as §3, §4
as §2, with “interference. […]” for “interference.”

Q: Which “half-life in the chymotrypsin degradation test compared to native peptide” value (chymotrypsin) does the source give for CC[C@H](C)[C@H](NC(=O)[C@H](Cc1ccccc1)NC(=O)[C@H](CCC(=O)O)NC(=O)[C@H](CCCCN)NC(=O)[C@H](C)NC(=O)[C@H](C)NC(=O)[C@H](CCC(N)=O)NC(=O)CNC(=O)[C@H](CCC(=O)O)NC(=O)[C@H](CC(C)C)NC(=O)[C@H](Cc1ccc(O)cc1)NC(=O)[C@H](CO)NC(=O)[C@H](CO)NC(=O)[C@@H](NC(=O)[C@H](CC(=O)O)NC(=O)[C@H](CO)NC(=O)[C@@H](NC(=O)[C@H](Cc1ccccc1)NC(=O)[C@@H](NC(=O)CNC(=O)[C@H](CCC(=O)O)NC(=O)[C@H](C)NC(=O)[C@@H](N)Cc1c[nH]cn1)[C@@H](C)O)[C@@H](C)O)C(C)C)C(=O)N[C@@H](C)C(=O)N[C@H](CNC(=O)N[C@@H](CC(C)C)C(=O)N[C@H](C(=O)N[C@@H](CCCCN)C(=O)NCC(=O)N[C@@H](CCCNC(=N)N)C(=O)NCC(=O)O)C(C)C)Cc1c[nH]c2ccccc12 [Compound 4] here?
A: Its value is “longer half-life”.

Q: And the EC50 (mouse GLP-1 receptor)?
A: Its EC50 is 0.26 nM.

Q: What about the “stability with carboxipeptidase A compared to native peptides” value [1] of the same molecule?
A: The value was “same results”.

Q: How did the “half-life in the trypsin degradation test compared to native peptide” value (trypsin) turn out when CC[C@H](C)[C@H](NC(=O)[C@H](Cc1ccccc1)NC(=O)NC[C@H](CCC(=O)O)NC(=O)[C@H](CCCCN)NC(=O)[C@H](C)NC(=O)[C@H](C)NC(=O)[C@H](CCC(N)=O)NC(=O)CNC(=O)[C@H](CCC(=O)O)NC(=O)[C@H](CC(C)C)NC(=O)[C@H](Cc1ccc(O)cc1)NC(=O)[C@H](CO)NC(=O)[C@H](CO)NC(=O)[C@@H](NC(=O)[C@H](CC(=O)O)NC(=O)[C@H](CO)NC(=O)[C@@H](NC(=O)[C@H](Cc1ccccc1)NC(=O)[C@@H](NC(=O)CNC(=O)[C@H](CCC(=O)O)NC(=O)[C@H](C)NC(=O)[C@@H](N)Cc1c[nH]cn1)[C@@H](C)O)[C@@H](C)O)C(C)C)C(=O)N[C@@H](C)C(=O)N[C@@H](Cc1c[nH]c2ccccc12)C(=O)N[C@@H](CC(C)C)C(=O)N[C@H](C(=O)N[C@@H](CCCCN)CNC(=O)NCC(=O)N[C@@H](CCCNC(=N)N)CNC(=O)NCC(=O)O)C(C)C [Compound 11] was run?
A: The value was “longer half-life”.

Q: What does the source list for CC(C)C[C@H](NC(=O)[C@H](C)NC(=O)[C@H](Cc1c[nH]c2ccccc12)NC(=O)[C@H](Cc1ccc(O)cc1)NC(=O)[C@H](CCC(=O)O)NC(=O)[C@H](C)NC(=O)[C@H](Cc1ccccc1)NC(=O)[C@H](CO)NC(=O)NC[C@@H](N)[C@@H](C)O)C(=O)N[C@@H](CC(C)C)C(=O)N[C@@H](CO)CNC(=O)N1CCC[C@H]1C(=O)O [Compound 23] ({X5-CO}-SFAEYWALL-X3; N-terminus and C-terminus assumed)?
A: EC50 (MDMX): 6.3 nM; EC50 (MDM2): 0.75 nM
